Reference: US20200261391A1, “METHODS OF REDUCING THE RISK OF A CARDIOVASCULAR EVENT IN A STATIN-TREATED SUBJECT BY INCREASING SERUM AND PLASMA EPA AND DPA LEVELS” (Amarin Pharmaceuticals Ireland Limited, priority 2019, published 2020)

Experiments:
Type in all cases: in vivo, human
[1] = REDUCE-IT change from baseline blood pressure (mixed effects model); details: ITT
Procedure: Blood pressure was measured using a standardized process: • Patient sat for ≥5 minutes with feet flat on the floor and measurement arm supported so that the midpoint of the manometer cuff was at heart level; and • Used a mercury sphygmomanometer or automatic blood pressure device with an appropriately sized cuff with the bladder centered over the brachial artery.
Blood pressure was recorded to the nearest 2 mmHg mark on the manometer or to the nearest whole number on an automatic device. A blood pressure reading was repeated 1 to 2 minutes later, and the second reading recorded to the nearest 2 mmHg mark.
It is contemplated that a number of factors contribute to the significant reduction in the cardiovascular risk. Without intending to be bound by any particular theory, one of the contributing factors might relate to the dose and formulation of the icosapent ethyl administered to the patients, in marked contrast to previous studies of omega-3 fatty acid studies. An additional contributing factor could relate to the patients' blood pressure. […] These differences appear to be modest, but it is contemplated, that they might contribute to the benefits of icosapent ethyl. […]

[2] = system: patients with elevated triglyceride levels on statin therapy; assay: REDUCE-IT endpoints by pooled (icosapent ethyl and placebo) EPA blood level tertile; details: icosapent ethyl and placebo pooled
Source text: (§1) The objective of this study is to assess the effects of administering icosapent ethyl at 4 g per day to patients from the REDUCE-IT trial of Example 1. More specifically, patients from the REDUCE-IT trial of Example 1 were stratified by their EPA levels into one of three tertiles. Following stratification, the objective was to determine if the RRR differs between patients having EPA levels in the three different tertiles. For the data collected as shown in Tables 38-43 and FIGS. 52, 53, and 56-59, the tertiles were established based on data collected from subjects at 1 year, 2 years, and last visit following icosapent ethyl administration compared to placebo. Data are presented as an average of 1 year, 2 year, […], and end of study values. The data was further analyzed use both pooled and unpooled statistically methods.
(0.84 for lowest vs. placebo, 0.72 for middle vs. placebo, and 0.65 for highest vs. placebo).

[3] = system: patients with elevated triglyceride levels on statin therapy; assay: REDUCE-IT endpoints by pooled (icosapent ethyl and placebo) EPA/AA ratio tertile; details: icosapent ethyl and placebo pooled
Source text: as §1
Placebo and icosapent ethyl treated subjects were pooled and stratified based on EPA/AA tertiles with […], […], and the highest […]

[4] = highest >118.1 μg/mL vs lowest ≤31.305 μg/mL
[5] = highest >118.1 μg/mL vs middle >31.305 to ≤118.1 μg/mL
[6] = middle >31.305 to ≤118.1 μg/mL vs lowest ≤31.305 μg/mL
[7] = highest >0.395187 vs lowest ≤0.084337
[8] = highest >0.395187 vs middle >0.084337 to ≤0.395187
[9] = middle >0.084337 to ≤0.395187 vs lowest ≤0.084337

SMILES: CC/C=C\C/C=C\C/C=C\C/C=C\C/C=C\CCCC(=O)OCC [icosapent ethyl, eicosapentaenoic acid ethyl ester]
- diastolic blood pressure, average placebo-corrected reduction from baseline [1]: 0.5 mm Hg
- systolic blood pressure, average placebo-corrected reduction from baseline [1]: 1.3 mm Hg
- HR (95% CI), Key Secondary Endpoint, pooled EPA tertiles, Highest vs Lowest [2, 4]: 0.61 (0.51, 0.71)
- HR (95% CI), Primary Endpoint, pooled EPA tertiles, Highest vs Lowest [2, 4]: 0.65 (0.57, 0.74)
- HR (95% CI), Key Secondary Endpoint, pooled EPA tertiles, Highest vs Middle [2, 5]: 0.78 (0.65, 0.92)
- HR (95% CI), Primary Endpoint, pooled EPA tertiles, Highest vs Middle [2, 5]: 0.80 (0.70, 0.92)
- HR (95% CI), Key Secondary Endpoint, pooled EPA tertiles, Middle vs Lowest [2, 6]: 0.78 (0.67, 0.91)
- HR (95% CI), Primary Endpoint, pooled EPA tertiles, Middle vs Lowest [2, 6]: 0.81 (0.71, 0.92)
- HR (95% CI), Key Secondary Endpoint, pooled EPA/AA ratio tertiles, Highest vs Lowest [3, 7]: 0.57 (0.48,0.68)
- HR (95% CI), Primary Endpoint, pooled EPA/AA ratio tertiles, Highest vs Lowest [3, 7]: 0.64 (0.56, 0.73)
- HR (95% CI), Key Secondary Endpoint, pooled EPA/AA ratio tertiles, Highest vs Middle [3, 8]: 0.75 (0.63, 0.89)
- HR (95% CI), Primary Endpoint, pooled EPA/AA ratio tertiles, Highest vs Middle [3, 8]: 0.84 (0.73, 0.96)
- HR (95% CI), Key Secondary Endpoint, pooled EPA/AA ratio tertiles, Middle vs Lowest [3, 9]: 0.76 (0.65, 0.89)
- HR (95% CI), Primary Endpoint, pooled EPA/AA ratio tertiles, Middle vs Lowest [3, 9]: 0.77 (0.67, 0.87)
